Measurements taken from ChEMBL document CHEMBL1159355, “New dihydrostilbene derivatives from the leaves of Glycyrrhiza glabra and evaluation of their antioxidant activity” (J Nat Prod, 2003).

Experiment: Antioxidant activity against linolenic acid oxidation assessed as inhibition rate constant for conjugated diene hydroperoxide formation
Format: functional

Q: Which Activity does the source give for `CC(C)=CCc1cc(CCc2cc(O)c(CC=C(C)C)c(O)c2)cc(O)c1O` here?
A: 11 ×10⁴ /M/s

Q: With `COc1c(O)cc(CCc2cc(O)cc(O)c2)cc1CC=C(C)C` as the compound, how does the Activity read?
A: 8 ×10⁴ /M/s

Q: Which Activity does the source give for `CC(C)=CCc1cc(CCc2cc(O)cc(O)c2)ccc1O` here?
A: 6 ×10⁴ /M/s

Q: With `CC(C)=CCc1cc(CCc2cc(O)cc(O)c2)cc(O)c1O` as the compound, how does the Activity read?
A: 9 ×10⁴ /M/s

Q: With `CC(C)=CCc1cc(CCc2cc(O)c(CC=C(C)C)c(O)c2)ccc1O` as the compound, how does the Activity read?
A: 7 ×10⁴ /M/s
